Results: US20140221676A1, “COMPOSITIONS AND METHODS FOR TREATING AND/OR PREVENTING CARDIOVASCULAR DISEASE” (Amarin Pharmaceuticals Ireland Limited, priority 2013, published 2014)
Entries after “also recorded” stand apart in the source; their conditions may differ.

Tests used:
Type in all cases: in vivo, human
[1] = test system: inflammation-associated end points (ICAM-1, Ox-LDL, Lp-PLA2, IL-6, hsCRP); assay: MARINE study, inflammation-associated end points (ITT); settings: for ICAM-1 change from baseline / ICAM-1 end-of-treatment value / IL-6 change from baseline / IL-6 end-of-treatment value / Lp-PLA2 change from baseline / Lp-PLA2 end-of-treatment value / Ox-LDL change from baseline / Ox-LDL end-of-treatment value / hsCRP change from baseline / hsCRP end-of-treatment value: median
Description: A summary of baseline values, end-of-treatment values, and median placebo-adjusted percent change from baseline to study end of inflammation-associated end points in each of the three ITT sub-populations is shown in Table 5. […]

[2] = Safety and tolerability in the phase 1 IPE pharmacokinetic study
Description: The safety population was defined as all randomized subjects who received at least one dose of study drug. The per-protocol population was defined as all safety population subjects who completed the 28-day treatment period without any major protocol deviations, and who provided blood samples for EPA analyses.
Safety assessments consisted of adverse event (AE) monitoring, clinical laboratory measurements (chemistry, hematology, and urinalysis) 12-lead electrocardiographic measurements, vital signs (systolic and diastolic blood pressure, heart rate, respiratory rate, and oral body temperature) and physical examination findings.

[3] = Phase 1 open-label multidose pharmacokinetic study of IPE, EPA in plasma and RBCs by LC-MS/MS
Procedure: A study to characterize the pharmacokinetics of ethyl eicosapentaenoate in plasma and red blood cells after multiple-dose administration of IPE at 2 g per day and 4 g per day was performed in healthy adult male and female humans.
The study was a phase 1, open-label, randomized, multidose study in healthy, nonsmoking men and women aged >18 and ≦55 years with a body mass index (BMI)>18 and ≦30 kg/m^2. Exclusion criteria included use within 6 weeks prior to randomization through study end of any lipid-altering medications or supplements, including statins, niacin at levels of greater than 200 mg/day, fibrates, ezetimibe, bile acid sequestrants, omega-3 fatty acid medications, and supplements or foods enriched with omega-3 fatty acids (no more than 2 servings of fish per week were permitted).
Following a 14-day screening period, subjects entered a 28-day treatment period and were randomized to one of four IPE dose regimen treatment groups as shown in FIG. 1. Group 1 received IPE 2 g daily (1000-mg capsules; twice-daily [BID] regimen); Group 2 received IPE 4 g daily (1000-mg capsules; BID regimen); Group 3 received IPE 2 g daily (1000-mg capsules; once-daily [QD] regimen); and Group 4 received IPE 2 g daily (500-mg capsules; BID regimen). Treatment was administered orally, with or following a meal in the morning and evening for BID regimens, or in the morning only for the QD regimen. Subjects then entered an 18-day post-treatment pharmacokinetic sampling period.
The safety population was defined as all randomized subjects who received at least one dose of study drug. […]
Fasting EPA concentrations were measured with a validated liquid chromatography with tandem mass spectrometry (LC-MS/MS) method in plasma and RBCs prior to the morning dose (days 1, 14, 26, 28) and at serial time points (1, 3, 5, 6, 8, 10, 12, 24, 48, 72, 120, 192, 312, and 432 hours) after the morning dose on day 28. […] In RBCs, EPA was measured in the cell membrane, where EPA is mainly incorporated in phospholipids.
For total EPA in plasma and RBCs, lipids were isolated by acid/methanol/chloroform extraction followed by centrifugation and purified by isohexane and solid-phase extraction after confirmed complete lipid hydrolysis and transmethylation (acid/methanol, 50° C. overnight). […] Quantitation utilized linolenic acid as an internal standard and EPA as the standard for the calibration curve; for total plasma EPA, RBC EPA, and unesterified EPA, the lower limits of quantitation were 10 μg/mL, 5 μg/mL, and 50 ng/mL, respectively. EPA concentrations were measured at Charles River Laboratories Ltd (Elphinstone Research Center, Tranent, Edinburgh, Scotland, UK). […]

[4] = test system: inflammation-associated end points (ICAM-1, Ox-LDL, Lp-PLA2, IL-6, hsCRP); assay: ANCHOR study, inflammation-associated end points (ITT); settings: for ICAM-1 median placebo-adjusted % change from baseline / IL-6 median placebo-adjusted % change from baseline / Lp-PLA2 median placebo-adjusted % change from baseline / Ox-LDL median placebo-adjusted % change from baseline / hsCRP median placebo-adjusted % change from baseline: week 12; for ICAM-1 change from baseline / ICAM-1 end-of-treatment value / IL-6 change from baseline / IL-6 end-of-treatment value / Lp-PLA2 change from baseline / Lp-PLA2 end-of-treatment value / Ox-LDL change from baseline / Ox-LDL end-of-treatment value / hsCRP change from baseline / hsCRP end-of-treatment value: week 12, on statin, median
Procedure: A multi-center, placebo-controlled, randomized, double-blind, 12-week study was performed to evaluate the efficacy and safety of >96% E-EPA in patients with fasting triglyceride levels ≧200 mg/dl and <500 mg/dl despite statin therapy (the mean of two qualifying entry values needed to be ≧185 mg/dl and at least one of the values needs to be ≧200 mg/dl). The primary objective of the study was to determine the efficacy of >96% E-EPA 2 g daily and 4 g daily, compared to placebo, in lowering fasting TG levels in patients with high risk for cardiovascular disease and with fasting TG levels ≧200 mg/dL and <500 mg/dL, despite treatment to LDL-C goal on statin therapy.
The population for this study was men and women >18 years of age with a body mass index ≦45 kg/m^2 with fasting TG levels greater than or equal to 200 mg/dl and less than 500 mg/dl and on a stable does of statin therapy (with or without ezetimibe). The statin must have been atorvostatin, rosuvastatin or simvastatin. The dose of statin must have been stable for ≧4 weeks prior to the LDL-C/TG baseline qualifying measurement for randomization. The statin dose was optimal such that the patients are at their LDL-C goal at the LDL-C/TG baseline qualifying measurements. The same statin at the same dose was continued until the study ended.
Approximately 648 patients were randomized at approximately 80 centers in the U.S. The study was a 18- to 20-week, Phase 3, multi-center study consisting of 2 study periods: (1) A 6- to 8-week screening period that included a diet and lifestyle stabilization, a non-statin lipid-altering treatment washout, and an LDL-C and TG qualifying period and (2) A 12-week, double-blind, randomized, placebo-controlled treatment period.
After confirmation of qualifying fasting LDL-C and TG values, eligible patients entered a 12-week, randomized, double-blind treatment period. At Visit 4 (Week 0), patients were randomly assigned to 1 of the following treatment groups: • >96% E-EPA 2 g daily, • >96% E-EPA 4 g daily, or • Placebo.
>96% E-EPA was provided in 1 g liquid-filled, oblong, gelatin capsules. The matching placebo capsule was filled with light liquid paraffin and contains 0 g of >96% E-EPA. >96% E-EPA capsules were to be taken with food (i.e. with or at the end of a meal).
The primary efficacy variable for the double-blind treatment period was percent change in TG from baseline to Week 12 endpoint. The secondary efficacy variables for the double-blind treatment period included the following: • Percent changes in total cholesterol (TC), high-density lipoprotein cholesterol (HDL-C), LDL-C, calculated non-HDL-C, and very low-density lipoprotein cholesterol (VLDL-C) from baseline to Week 12 endpoint; • Percent change in very low-density lipoprotein TG from baseline to Week 12; • Percent changes in apolipoprotein A-I (apo A-I), apolipoprotein B (apo B), and apo A-I/apo B ratio from baseline to Week 12; • Percent changes in lipoprotein(a) from baseline to Week 12; • Percent changes in LDL particle number and size, measured by nuclear magnetic resonance, from baseline to Week 12; • Percent change in remnant-like particle cholesterol from baseline to Week 12; • Percent change in oxidized LDL from baseline to Week 12; • Changes in FPG and HbA1c from baseline to Week 12; • Change in insulin resistance, as assessed by the homeostasis model index insulin resistance, from baseline to Week 12; • Percent change in lipoprotein associated phospholipase A2 (Lp-PLA2) from baseline to Week 12; • Change in intracellular adhesion molecule-1 from baseline to Week 12; • Change in interleukin-2 from baseline to Week 12; • Change in plasminogen activator inhibitor-1 from baseline to Week 12. […]

## CC/C=C\C/C=C\C/C=C\C/C=C\C/C=C\CCCC(=O)OCC [IPE, ethyl eicosapentaenoate]
[1]; AMR101 2 g/day vs placebo
  ICAM-1 median placebo-adjusted % change from baseline: −2.3%
  IL-6 median placebo-adjusted % change from baseline: 4.7%
  Lp-PLA2 median placebo-adjusted % change from baseline: −5.1%
  Ox-LDL median placebo-adjusted % change from baseline: −3.0%
  hsCRP median placebo-adjusted % change from baseline: −10.1%
[1]; AMR101 2 g/day
  ICAM-1 change from baseline: −0.4%
  ICAM-1 end-of-treatment value: 257.5 ng/mL
  IL-6 change from baseline: 3.4%
  IL-6 end-of-treatment value: 3.0 pg/mL
  Lp-PLA2 change from baseline: −5.1%
  Lp-PLA2 end-of-treatment value: 220.5 ng/mL
  Ox-LDL change from baseline: 0.4%
  Ox-LDL end-of-treatment value: 75.2 U/L
  hsCRP change from baseline: 25.1%
  hsCRP end-of-treatment value: 2.4 mg/L
[1]; AMR101 4 g/day vs placebo
  ICAM-1 median placebo-adjusted % change from baseline: −2.5%
  IL-6 median placebo-adjusted % change from baseline: 11.0%
  Lp-PLA2 median placebo-adjusted % change from baseline: −13.6%
  Ox-LDL median placebo-adjusted % change from baseline: −6.4%
  hsCRP median placebo-adjusted % change from baseline: −36.0%
[1]; AMR101 4 g/day
  ICAM-1 change from baseline: −0.9%
  ICAM-1 end-of-treatment value: 253.0 ng/mL
  IL-6 change from baseline: 0.3%
  IL-6 end-of-treatment value: 2.4 pg/mL
  Lp-PLA2 change from baseline: −17.1%
  Lp-PLA2 end-of-treatment value: 201.0 ng/mL
  Ox-LDL change from baseline: −3.0%
  Ox-LDL end-of-treatment value: 74.8 U/L
  hsCRP change from baseline: −2.5%
  hsCRP end-of-treatment value: 2.2 mg/L
[2]; Group 1, IPE 2 g daily, 1000-mg capsules BID
  subjects reporting at least one adverse event: 25.0%
[2]; Group 2, IPE 4 g daily, 1000-mg capsules BID
  subjects reporting at least one adverse event: 33.3%
[2]; Group 3, IPE 2 g daily, 1000-mg capsules QD
  subjects reporting at least one adverse event: 25.0%
[2]; Group 4, IPE 2 g daily, 500-mg capsules BID
  subjects reporting at least one adverse event: 33.3%
[2]; all groups
  changes in laboratory, electrocardiographic, or physical examination findings: no clinically meaningful changes
  intensity of adverse events: mild or moderate in intensity
[2]; all groups, safety population n = 48
  subjects reporting at least one adverse event: 29.2%
[3]; IPE 2 g/day vs 4 g/day (Group 1 vs Group 2), total plasma, total RBCs, unesterified EPA
  dose linearity of exposure (dose-normalized AUC and maximum concentration): Dose linearity was observed; also recorded: dose-proportional
[3]; in vivo
  effect of gender on exposure parameters: no consistent gender effect was observed
[3]; same daily dose 2 g, Group 1 vs Group 3
  comparison of exposure between QD and BID regimens: similarity between QD and BID regimens
[3]; same daily dose 2 g, Group 1 vs Group 4
  comparison of exposure between 500-mg and 1000-mg formulations: comparable exposures at comparable doses
[4]; AMR101 2 g/day vs placebo
  ICAM-1 median placebo-adjusted % change from baseline: −2.2%
  IL-6 median placebo-adjusted % change from baseline: 7.0%
  Lp-PLA2 median placebo-adjusted % change from baseline: −8.0%
  Ox-LDL median placebo-adjusted % change from baseline: −5.8%
  hsCRP median placebo-adjusted % change from baseline: −6.8%
[4]; AMR101 2 g/day
  ICAM-1 change from baseline: 0.5%
  ICAM-1 end-of-treatment value: 268.5 ng/mL
  IL-6 change from baseline: 6.9%
  IL-6 end-of-treatment value: 2.7 pg/mL
  Lp-PLA2 change from baseline: −1.8%
  Lp-PLA2 end-of-treatment value: 183.5 ng/mL
  Ox-LDL change from baseline: 2.6%
  Ox-LDL end-of-treatment value: 55.8 U/L
  hsCRP change from baseline: 10.3%
  hsCRP end-of-treatment value: 2.5 mg/L
[4]; AMR101 4 g/day vs placebo
  ICAM-1 median placebo-adjusted % change from baseline: −2.4%
  IL-6 median placebo-adjusted % change from baseline: −1.0%
  Lp-PLA2 median placebo-adjusted % change from baseline: −19.0%
  Ox-LDL median placebo-adjusted % change from baseline: −13.3%
  hsCRP median placebo-adjusted % change from baseline: −22.0%
[4]; AMR101 4 g/day
  ICAM-1 change from baseline: 0.8%
  ICAM-1 end-of-treatment value: 270.0 ng/mL
  IL-6 change from baseline: 3.1%
  IL-6 end-of-treatment value: 2.6 pg/mL
  Lp-PLA2 change from baseline: −12.8%
  Lp-PLA2 end-of-treatment value: 160.0 ng/mL
  Ox-LDL change from baseline: −4.8%
  Ox-LDL end-of-treatment value: 51.4 U/L
  hsCRP change from baseline: −2.4%
  hsCRP end-of-treatment value: 2.0 mg/L
